Source: ChEMBL document CHEMBL5576094, “A Diterpenoid of the Medicinal Plant Andrographis paniculata Targets Cutaneous TRPV3 Channel and Relieves Itch” (J Nat Prod, 2024)

Columns and labels:
Mus musculus [1] = species on record: Mus musculus; assay: Antipruritic activity in carvacrol-induced scratching C57BL/6 mouse model assessed as inhibition of neck scratching behavior at 300 uM, ID pretreated for 30 mins followed by carvacrol stimulation and measured for 30 mins relative to control; format: functional; settings: C57BL/6, 1 h, time 60 min
[2] = biological target: T1, Transient receptor potential cation channel subfamily V member 3 (Homo sapiens, UniProt Q8NET8); assay: Inhibition of human TRPV3 expressed in HEK293 cells assessed as reduction in 2-APB induced channel current at voltage ramp from -100 to +100 mV by whole-cell patch clamp electrophysiology; format: cell-based
T1 sequence (Q8NET8 whole entry): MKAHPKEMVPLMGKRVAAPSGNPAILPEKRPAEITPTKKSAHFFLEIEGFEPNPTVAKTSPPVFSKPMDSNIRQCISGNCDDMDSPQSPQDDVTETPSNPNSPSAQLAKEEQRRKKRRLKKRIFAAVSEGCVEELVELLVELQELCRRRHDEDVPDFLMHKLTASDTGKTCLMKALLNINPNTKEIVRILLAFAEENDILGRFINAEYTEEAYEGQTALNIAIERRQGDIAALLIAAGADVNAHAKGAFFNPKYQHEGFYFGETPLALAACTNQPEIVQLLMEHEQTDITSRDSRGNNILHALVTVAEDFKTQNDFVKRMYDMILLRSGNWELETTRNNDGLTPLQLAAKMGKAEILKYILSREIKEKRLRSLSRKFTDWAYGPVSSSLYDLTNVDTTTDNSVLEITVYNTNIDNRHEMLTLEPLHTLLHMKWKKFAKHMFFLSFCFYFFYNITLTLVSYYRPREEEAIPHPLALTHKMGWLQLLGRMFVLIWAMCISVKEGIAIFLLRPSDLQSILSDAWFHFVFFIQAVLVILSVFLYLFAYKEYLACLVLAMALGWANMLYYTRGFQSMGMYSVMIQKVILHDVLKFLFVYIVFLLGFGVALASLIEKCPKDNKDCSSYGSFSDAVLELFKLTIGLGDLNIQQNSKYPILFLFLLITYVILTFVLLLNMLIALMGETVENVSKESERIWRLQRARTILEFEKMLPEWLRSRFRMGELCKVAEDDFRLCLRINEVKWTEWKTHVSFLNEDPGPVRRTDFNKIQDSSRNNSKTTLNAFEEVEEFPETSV

Mus musculus [3] = species on record: Mus musculus; assay: Antipruritic activity in carvacrol-induced scratching C57BL/6 mouse model assessed as inhibition of neck scratching behavior at 30 uM, ID pretreated for 30 mins followed by carvacrol stimulation and measured for 30 mins relative to control; format: functional; settings: C57BL/6, 1 h, time 60 min
Mus musculus [4] = species on record: Mus musculus; assay: Antipruritic activity in histamine-induced scratching C57BL/6 mouse model assessed as inhibition of neck scratching behavior at 0.3 to 30 uM, ID pretreated for 30 mins followed by histamine stimulation and measured for 30 mins relative to control; format: functional; settings: dose 0.3-30 µM, time 60 min, 1 h
Mus musculus [5] = species on record: Mus musculus; assay: Antipruritic activity in carvacrol-induced scratching C57B/6 mouse model assessed as inhibition of neck scratching behavior at 50 uM, ID pretreated for 30 mins followed by carvacrol stimulation and measured for 30 mins relative to control; format: functional; settings: C57B/6, 1 h, time 60 min
Mus musculus [6] = species on record: Mus musculus; assay: Antipruritic activity in carvacrol-induced scratching C57B/6 mouse model assessed as inhibition of neck scratching behavior at 10 uM, ID pretreated for 30 mins followed by carvacrol stimulation and measured for 30 mins relative to control; format: functional; settings: C57B/6, 1 h, time 60 min

| Structure (SMILES) | inhibition in vivo at 300 µM (Mus musculus [1]) | IC50 [2] | inhibition in vivo at 30 µM (Mus musculus [3]) | inhibition (INH) (Mus musculus [4]) | inhibition in vivo at 50 µM (Mus musculus [5]) | inhibition in vivo at 10 µM (Mus musculus [6]) |
| --- | --- | --- | --- | --- | --- | --- |
| C[C@@H]1O[C@@H](O[C@@H]2[C@@H](O)[C@H](OCCc3ccc(O)c(O)c3)O[C@H](CO[C@@H]3OC[C@](O)(CO)[C@H]3O)[C@H]2OC(=O)/C=C/c2ccc(O)c(O)c2)[C@H](O)[C@H](O)[C@H]1O | 77% | 6.7 µM | ~56% | 57% | – | – |
| CCCCOc1ccc(C(=O)CCN2CCCCC2)cc1 [DYCLONINE] | – | – | – | – | 100% | ~41% |
